These results are taken from ChEMBL document CHEMBL1201862, “PubChem BioAssay data set” (2004).

Common to all, as to test: NCI anticancer screen, dose series, 48 h
For test [1], the system named is OVCAR-5.
The test system of test [2] is MDA-MB-231.
The test system of test [3] is NCI-H460.
The subject of test [4] is UACC-62.
The subject of test [5] is MDA-MB-435.
The test system of test [6] is PC-3.
Test [7] deals with LOX IMVI.
The subject of test [8] is COLO 205.
Test [9] concerns T47D.
Test [10] deals with UO-31.
Test [11] has as its system RXF 393.
Test [12] deals with HL-60.
Test [13] relates to HCC 2998.
Test [14] deals with SF-295.
Test [15] relates to A549.
Test [16] deals with NCI/ADR-RES.
The subject of test [17] is SF-268.
For test [18], the system named is SK-OV-3.
Test [19] has as its system SK-MEL-5.
Test [20] deals with HOP-92.

Molecules are shown by their SMILES.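 48-hour exposure; five concentrations; linearly interpolated endpoints. GI50 = concentration required for 50% inhibition of growth.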 Calls of active or inactive are those of the source. Rule as the data show it: active = GI50 up to about 1.1 µM and inactive = higher.

As for `CC(Cl)CC(=O)OCC1CCCN2CCCCC12` (stereo not given), the GI50 in test [1], in [2], in test [3], in test [4], in test [5] and in test [6] was > 100 µM (inactive) throughout. Moreover, the GI50 in test [7] is > 100 µM (inactive); in test [8], > 100 µM (inactive); in test [9] it was > 100 µM (inactive); in test [10] it was > 100 µM (inactive); in test [11] it was > 100 µM (inactive); in test [12], 54.7 µM (inactive). The GI50 in test [13], in test [14], in [15], in test [16], in test [17] and in [18] was > 100 µM (inactive) each time. In addition, the GI50 in test [19] and in test [20] was > 100 µM (inactive) each time.

For `NC(CS)C(=O)NCCNc1ccc(NCCNC(=O)C(N)CS)c2c1C(=O)c1c(O)ccc(O)c1C2=O` (stereo not given), the GI50 in [1] was 0.481 µM (active); in [2], 0.433 µM (active); in test [3], < 0.001 µM (active); in test [4], 0.0223 µM (active); in test [5], 0.483 µM (active); in [6] it was 0.126 µM (active). In addition, the GI50 is 0.0185 µM (active) in test [7]; 0.422 µM (active) in test [8]; 0.166 µM (active) in [9]; 0.0313 µM (active) in test [10]; 0.191 µM (active) in test [11]; 0.00175 µM (active) in test [12]. The GI50 was 0.225 µM (active) in test [13]; 0.00782 µM (active) in test [14]; 0.00251 µM (active) in test [15]; 0.126 µM (active) in test [16]; 0.0246 µM (active) in [17]; 0.0124 µM (active) in [18]. The GI50 is 0.0948 µM (active) in test [19] and 0.00638 µM (active) in test [20].

Take `CN1CCCCC1CCN1CCCCC1` (stereo not given): the GI50 in [1], in [2], in test [3], in [4], in [5] and in test [6] was > 100 µM (inactive) throughout. Also, the GI50 in test [7] is > 100 µM (inactive); in test [8] it was 56.4 µM (inactive); in [9], > 100 µM (inactive); in test [10], > 100 µM (inactive); in test [11], > 100 µM (inactive); in [12], 83 µM (inactive). Further, the GI50 in test [13], in test [14], in test [15], in [16], in test [17] and in test [18] was > 100 µM (inactive) in each case. The GI50 in test [19] and in test [20] was > 100 µM (inactive) throughout.

Consider `COC(=O)C1CC23CCCN4CCC5(c6ccccc6N(C=O)C15CC2)C43` (stereo not given), for which the GI50 in [1], in [2], in test [3], in test [4], in test [5] and in test [6] was > 100 µM (inactive) in each case. In addition, the GI50 in [7], in [8], in test [9], in test [10], in [11] and in [12] was > 100 µM (inactive) each time. Moreover, the GI50 in [13], in test [14], in [15], in test [16], in [17] and in test [18] was > 100 µM (inactive) throughout. In addition, the GI50 in test [19] and in test [20] was > 100 µM (inactive) in each case.

For `CCOC(=O)c1c(C)n(Cc2ccccc2)c(=O)c2ccccc2c(=O)c2c(=O)ccc(=O)c1=2`, the GI50 was > 100 µM (inactive) in test [1]; 65 µM (inactive) in test [2]; > 100 µM (inactive) in test [3]; > 100 µM (inactive) in test [4]; > 100 µM (inactive) in [5]; 39.7 µM (inactive) in [6]. Besides, the GI50 in test [7] is 25.2 µM (inactive); in test [8], 43.4 µM (inactive); in test [9] it was 30.6 µM (inactive); in test [10], 17.9 µM (inactive); in [11] it was 23.8 µM (inactive); in test [12], > 100 µM (inactive). The GI50 was 38.5 µM (inactive) in [13]; > 100 µM (inactive) in test [14]; > 100 µM (inactive) in test [15]; 92.7 µM (inactive) in test [16]; 57.7 µM (inactive) in [17]; > 100 µM (inactive) in [18]. The GI50 in test [19] is > 100 µM (inactive); in [20], 14.9 µM (inactive).

Consider `COc1ccc(CNc2ccn(C3OC(CO)C(O)C3O)c(=O)n2)cc1` (stereo not given), for which the GI50 is > 100 µM (inactive) in test [1]; > 100 µM (inactive) in [2]; 78.7 µM (inactive) in test [3]; 74.5 µM (inactive) in test [4]; 44.8 µM (inactive) in test [5]; > 100 µM (inactive) in test [6]. The GI50 in [7] is > 100 µM (inactive); in [8] it was > 100 µM (inactive); in test [9], 25.4 µM (inactive); in test [10], 81.7 µM (inactive); in test [11] it was > 100 µM (inactive); in test [12], 27.2 µM (inactive). Also, the GI50 in test [13] was 48.8 µM (inactive); in [14] it was > 100 µM (inactive); in [15], > 100 µM (inactive); in test [16] it was > 100 µM (inactive); in test [17], > 100 µM (inactive); in test [18] it was > 100 µM (inactive). The GI50 in test [19] was 62.5 µM (inactive); in test [20], 47.1 µM (inactive).
